Results on nine compounds are retold here after US7906551B2 (Rottapharm S.p.A., priority 2006, dated 2011).

pIC50: −log10 of the molar value. Like-named read-outs stand apart in the source and are kept apart here.

Data set [1] relates to rat model of hyperalgesia induced by carragenine. Put plainly: Paw pressure test, hyperalgesia induced by carragenine. The format is in vivo. The method, then:
(§1) Male Swiss albino mice (23-25 g) and Sprague Dawley or Wistar rats (150-200 g) were used. The animals were fed a standard laboratory diet and tap water ad libitum and kept at 23±1° C. with a 12 h light/dark cycle, light on at 7 a.m.
The nociceptive threshold in the rat was determined with an analgesimeter, according to the method described by Leighton et al, G. E.; Br. J. Pharmacol. 1988, 93, 553-560. Threshold pressure was measured before and 30, 60 and 120 min after treatment. An arbitrary cut-off value of 250 g was adopted. In order to induce an inflammatory process in the rat paw carrageenan (0.1 ml, 1%) was administered i.p. 4 h before test.

For data set [2], the system named is rat model of edema induced by carragenine. Put plainly: Carrageenan-induced paw edema. The note with it: 1 h, 60 min, read-out: Edema inhibition 60 min, MPE. The format is in vivo. The method, then:
as §1
Rats paw volumes were measured using a plethysmometer. Rats received the investigated compounds 4 hours after a 0.1-ml injection of 1.0% carrageenan in the right hind paw. Five hours after the injection of carrageenan (i.e. 1 hour after the administration of the investigated compound), the paw volume of the right hind paw was measured and compared with saline/carrageenan-treated controls. Results are reported as maximum percent effect (MPE), see below for detailed explanation.
On the technique in general: Carrageenan injected into the paw causes an acute inflammation.

In data set [3] the test system is rat model of hyperalgesia induced by Zymosan. Put plainly: Zymosan-induced hyperalgesia (Randal-Selitto). The class given is in vivo. The settings on record: oral. On the procedure: as §1
(§2) The interplantar injection of Zymosan-induced mechanical hyperalgesia may be used as a model of inflammatory pain (Meller, Neuropharmacology, 1994, 33, 1471-1478). In this model, typically a male Sprague-Dawely or Wistar rat (200-250 g) receives an interplantar injection of 4 mg/100 μl zymosan into one hind paw. A marked inflammation occurs in this hind paw. Drugs are administered orally for evaluation of efficacy, 30 min. before the inflammatory insult. The hyperalgesia induced by zymosan administration was evaluated using the Randal-Selitto method (Arch. Int. Pharmacodyn., 1957, 111, 409). The quantitation of the analgesic effect is achieved by an analgesimeter, which consist in applying to the inflamed paw an increasing weight (from 130-140 g up to 500 g). The difference in the mechanical pain threshold between the basal value (generally 230-250 g) and the one tolerated by the animals treated with the drug, determined 4 hours after the inflammatory challenge, is defined as mechanical hyperalgesia.
Mechanical hyperalgesia is expressed for the compounds of the invention as maximum percent effect (MPE) which represents the difference (%) in pain threshold between the animals treated with the drug and the controls that received only the vehicle.
Results are reported as MPE (reduction of the nociceptive effect, due to paw loading with increasing weight, in comparison to controls). 100% MPE means that the animal treated with the compound and Zymosan can tolerate the same stimulus (weight) as the control animals which have not received Zymosan treatment. MPE higher than 100% mean that the animal treated with the compound and Zymosan can tolerate stimuli (weight) higher than the control animals, which has not received Zymosan treatment (hypoalgesia).

Data set [4] concerns rat model of edema induced by Zymosan. The experiment in a line: Zymosan-induced paw edema. The note with it: oral. The class given is in vivo. On the procedure:
as §1, §2
In vivo anti-inflammatory effect exerted by the compounds of the invention can be assessed in the same Zymosan induced inflammation test described above, by measuring the volume of the oedema induced by the inflammatory agent. The oedema was evaluated as the increase in the volume of the Zymosan injected paw within a time of 0-2 hrs. The measurements of the variation of the oedema volume of the paw were recorded using hydroplethysmometer. Results are expressed as MPE, maximum percent effect, that in this case represents the reduction (%) in the oedema of treated animals in comparison to controls (animals treated with Zymosan, which received only the vehicle).

The conditions of data set [5]: study whether Celecoxib could treat AD; cited from earlier work.
Data set [6] deals with low-density lipoprotein. The settings on record: cited from earlier work.
The target in data set [7] is T1, COX-2 (Mus musculus, UniProt Q05769).
T1 construct: lipopolysaccharide (LPS, 10 μg/mL) to induce COX-2; endogenous in cells; host or cells: J774 murine monocyte/macrophage cell line, LPS-stimulated
T1 sequence (Q05769 18-604): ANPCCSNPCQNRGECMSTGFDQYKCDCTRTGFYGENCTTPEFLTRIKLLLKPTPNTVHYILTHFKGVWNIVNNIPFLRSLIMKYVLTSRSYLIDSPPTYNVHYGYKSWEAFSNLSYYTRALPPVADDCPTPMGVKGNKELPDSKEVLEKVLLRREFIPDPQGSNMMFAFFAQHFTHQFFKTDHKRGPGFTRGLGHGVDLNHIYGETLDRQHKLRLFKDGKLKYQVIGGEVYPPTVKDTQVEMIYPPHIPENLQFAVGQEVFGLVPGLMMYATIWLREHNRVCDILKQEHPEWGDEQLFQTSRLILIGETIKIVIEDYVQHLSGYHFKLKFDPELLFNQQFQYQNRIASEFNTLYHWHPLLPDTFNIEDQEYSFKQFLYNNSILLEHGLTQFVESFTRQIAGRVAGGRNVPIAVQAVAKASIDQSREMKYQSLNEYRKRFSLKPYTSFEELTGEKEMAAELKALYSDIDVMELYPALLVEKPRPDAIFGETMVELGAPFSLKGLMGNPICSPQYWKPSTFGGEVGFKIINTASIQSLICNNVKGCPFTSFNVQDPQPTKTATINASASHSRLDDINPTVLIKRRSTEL
Put plainly: Assessment of COX-2 activity in LPS-stimulated J774 cells (PGE2 radioimmunoassay). The format is cell-based, murine. The settings on record: for COX-1/COX-2 Selectivity Index (IC50 ratio): Table 2, Formula Ia. On the procedure:
Cells were stimulated for 24 h with E. coli lipopolysaccharide (LPS, 10 μg/mL) to induce COX-2, in the absence or presence of test compounds, at the concentrations previously reported. The supernatants were collected for the measurement of PGE2 by radioimmunoassay.
Analysis. Throughout the time the experiments lasted, triplicate wells were used for the various conditions of treatment. Results are expressed as the mean, for 3 experiments, of the % inhibition of PGE2 production by test compounds with respect to control samples. Data fit was obtained using the sigmoidal dose-response equation (variable slope). The IC50 were calculated by GraphPad Instat program (GraphPad software).

Data set [8] relates to mouse abdominal constriction (writhing). Put plainly: Mouse abdominal constriction test (acetic acid 0.6%), writhing test. The format is in vivo. The settings on record: mice, 30 min before test, control 38.1 ± 2.6. On the procedure: as §1
Mice were injected i.p. with a 0.6% solution of acetic acid (10 ml/kg), according to Koster et al. Fed. Proc., 1959, 18, 412. The number of stretching movements was counted for 10 min, starting 5 min after acetic acid injection.
For orientation: An intraperitoneal irritant provokes the stretching counted in writhing tests.

For data set [9] the following is noted: VIGOR trial; cited from earlier work.
The subject of data set [10] is glaucomatous rabbits. The settings on record: not COX-2 dependent effect; cited from earlier work.
Setting [11] is: 0.5 h, 30 min, read-out: Analgesia 30 min MPE.
The mark [12] stands for this setting: 1 h, 60 min, read-out: Analgesia 60 min MPE.

A word on the pIC50: it is the negative decadic logarithm of the IC50, by convention in mol/L. Broadly, the melting point is the temperature, or range, at which the solid turns liquid.

For the compound `Cc1ccc(-c2cc(C(F)(F)F)nn2-c2ccc(S(N)(=O)=O)cc2)cc1` [Celecoxib], the inhibition in vivo at 20 mg/kg in data set [1] (setting [11]) is 73%; in [1] (setting [12]) it was 81%; in [2] it was 95%. In data set [3] (3 mg/Kg), the “Analgesia 0-2 hrs MPE” value amounted to 30%. For the same compound, in [3] (3 mg/Kg), the “Analgesia 0-6 hrs MPE” value came to 35%. Moreover, the “Edema 0-6 hrs MPE” value in data set [4] (3 mg/Kg) turned out to be 24.8%. Moreover, the “incidence of heart attack in the treated group in comparison to placebo” value in data set [5] is recorded as “four times higher”. In data set [6], the “susceptibility of low-density lipoprotein to oxidative modifications” value is on record as “had no effect”.
Regarding `CCOC(=O)Cc1cc(-c2ccc(S(C)(=O)=O)cc2)n(-c2ccc(F)c(F)c2)c1C` [Compound 5b, Ethyl 2-[1-(3,4-difluoro)phenyl-2-methyl-5-(4-methylsulphonyl)phenyl-1H-pyrrol-3-yl]acetate, reference compound], the selectivity in [7] is > 5000. Further, the pIC50 in data set [7] (read-out: in vitro COX-2 inhibitory potency IC50) is 7.70. Moreover, the inhibition in vivo at 20 mg/kg in data set [1] (setting [11]) was found to be 30%. Also, in data set [1] (setting [12]), the inhibition in vivo at 20 mg/kg worked out at 36%. Besides, in data set [2], the inhibition in vivo at 20 mg/kg turned out to be 30%. Further, in [3] (4 mg/Kg), the “Analgesia 0-2 hrs MPE” value is 9% and the “Analgesia 0-6 hrs MPE” value was 12%. In data set [4] (4 mg/Kg), the “Edema 0-2 hrs MPE” value is listed as 8% and the “Edema 0-6 hrs MPE” value is listed as 6%.
On to `Cc1c(CC(=O)OC(C)C)cc(-c2ccc(S(C)(=O)=O)cc2)n1-c1ccccc1` [Example 1, Isopropyl[2-methyl-5-(4-methylsulphonyl)phenyl-1-phenyl-1H-pyrrol-3-yl]acetate], for which the melting point came out at 160 °C. In addition, the inhibition in vivo at 5 mg/kg in [1] (setting [11]) was determined as 80%. Further, the inhibition in vivo at 5 mg/kg in data set [1] (setting [12]) came out at 60%. In [2] (5 mg/Kg), the inhibition in vivo at 5 mg/kg is 100%. Moreover, in data set [3] (3 mg/Kg), the “Analgesia 0-2 hrs MPE” value came out at 75% and the “Analgesia 0-6 hrs MPE” value turned out to be 70%. Also, in data set [4] (3 mg/Kg), the “Edema 0-2 hrs MPE” value is given as 20% and the “Edema 0-6 hrs MPE” value is reported as 15%. Moreover, the Number of writhes in data set [8] (5 mg/Kg s.c.) turned out to be 28.5 ± 3.3.
For the compound `Cc1c(CC(=O)OC(C)C)cc(-c2ccc(S(C)(=O)=O)cc2)n1-c1ccc(F)c(F)c1` [Example 2, Isopropyl[1-(3,4-difluoro)phenyl-2-methyl-5-(4-methylsulphonyl)phenyl-1H-pyrrol-3-yl]acetate], the melting point was found to be 143 °C. Further, in data set [7], the “COX-1/COX-2 Selectivity Index (IC50 ratio)” value is >4700. The inhibition in vivo at 20 mg/kg in data set [1] (setting [11]) is 100%. The inhibition in vivo at 20 mg/kg in data set [1] (setting [12]) was found to be 70%. For the same compound, the inhibition in vivo at 20 mg/kg in data set [2] stood at 91%. The compound also registered a Number of writhes in data set [8] (20 mg/Kg s.c.) of 21.5 ± 3.9.
Consider `COc1ccc(-n2c(-c3ccc(S(C)(=O)=O)cc3)cc(CC(=O)OC(C)C)c2C)cc1` [Example 3, Isopropyl[1-(4-methoxy)phenyl-2-methyl-5-(4-methylsulphonyl)phenyl-1H-pyrrol-3-yl]acetate], for which the melting point turned out to be 138 °C. In data set [7], the “COX-1/COX-2 Selectivity Index (IC50 ratio)” value is >4500. Further, the inhibition in vivo at 20 mg/kg in data set [1] (setting [11]) was 67%. In data set [1] (setting [12]), the inhibition in vivo at 20 mg/kg is 90%. Further, in data set [2], the inhibition in vivo at 20 mg/kg came out at 77%. The compound further had a Number of writhes in data set [8] (20 mg/Kg s.c.) of 18.5 ± 3.5.
`Cc1c(CC(=O)OC(C)C)cc(-c2ccc(S(C)(=O)=O)cc2)n1-c1cccc(F)c1` [Example 4, Isopropyl[1-(3-fluoro)phenyl-2-methyl-5-(4-methylsulphonyl)phenyl-1H-pyrrol-3-yl]acetate] displayed a melting point of 100 °C. Moreover, the “COX-1/COX-2 Selectivity Index (IC50 ratio)” value in data set [7] was >2300. In addition, the inhibition in vivo at 20 mg/kg in data set [1] (setting [11]) worked out at 84%. In addition, in data set [1] (setting [12]), the inhibition in vivo at 20 mg/kg was found to be 80%. Further, the inhibition in vivo at 20 mg/kg in data set [2] is 87%. This compound also had a Number of writhes in data set [8] (20 mg/Kg s.c.) of 17.7 ± 2.9.
`CCCCOC(=O)Cc1cc(-c2ccc(S(C)(=O)=O)cc2)n(-c2ccc(F)c(F)c2)c1C` [Example 5, n-Butyl[1-(3,4-difluoro)phenyl-2-methyl-5-(4-methylsulphonyl)phenyl-1H-pyrrol-3-yl]acetate] gave a melting point of 112 °C. Besides, the “COX-1/COX-2 Selectivity Index (IC50 ratio)” value in [7] was >3300. Besides, the inhibition in vivo at 20 mg/kg in data set [1] (setting [11]) is 76%. In addition, in data set [1] (setting [12]), the inhibition in vivo at 20 mg/kg came to 100%. Besides, in [2], the inhibition in vivo at 20 mg/kg is 74%. The same compound came in with a Number of writhes in data set [8] (20 mg/Kg s.c.) of 13.7 ± 4.0.
As for `CS(=O)(=O)c1ccc(C2=C(c3ccccc3)C(=O)OC2)cc1` [Rofecoxib], the “COX-1/COX-2 Selectivity Index (IC50 ratio)” value in [7] is reported as >800. For the same compound, the “incidence of acute myocardial infarction, Rofecoxib arm compared with the Naproxen arm” value in [9] was “five-fold increase”. Also, the “effect on intraocular pressure” value in [10] is given as “had no effect”. Besides, the “susceptibility of low-density lipoprotein to oxidative modifications” value in data set [6] is “increases susceptibility”.
For `Cc1onc(-c2ccccc2)c1-c1ccc(S(N)(=O)=O)cc1` [Valdecoxib], in data set [10], the “effect on intraocular pressure” value is given as “reduce intraocular pressure”.
